Experimental data taken from ChEMBL document CHEMBL4507296 (2021).

Experiments:
[1] = molecular target: Mu-type opioid receptor (Homo sapiens) (UniProt P35372); conditions: Compound concentration 10.0 uM
[2] = molecular target: T1, GABA-A receptor; anion channel (Rattus norvegicus) (UniProt O09028+P15431+P18506+P18508+P19969+P20236+P23574+P23576+P28471+P28473+P30191+P62813+P63079+P63138+Q91ZM7+Q9ES14); conditions: Compound concentration 10.0 uM
[3] = molecular target: Alpha-1B adrenergic receptor (Homo sapiens) (UniProt P35368); conditions: Compound concentration 10.0 uM
[4] = molecular target: Transient receptor potential cation channel subfamily M member 8 (Homo sapiens, UniProt Q7Z2W7); assay: Assay (coming soon)
[5] = molecular target: 5-hydroxytryptamine receptor 2A (Homo sapiens) (UniProt P28223); conditions: Compound concentration 10.0 uM
Rattus norvegicus = species: Rattus norvegicus; conditions: Compound concentration 10.0 uM
[6] = molecular target: 5-hydroxytryptamine receptor 2C (Homo sapiens) (UniProt P28335); conditions: Compound concentration 10.0 uM
[7] = molecular target: Muscarinic acetylcholine receptor M1 (Homo sapiens) (UniProt P11229); conditions: Compound concentration 10.0 uM
[8] = molecular target: Alpha-2C adrenergic receptor (Homo sapiens) (UniProt P18825); conditions: Compound concentration 10.0 uM
[9] = molecular target: 5-hydroxytryptamine receptor 1B (Homo sapiens) (UniProt P28222); conditions: Compound concentration 10.0 uM
[10] = molecular target: T2, Alpha-2B adrenergic receptor (Homo sapiens) (UniProt P18089); conditions: Compound concentration 10.0 uM
T2 sequence (whole entry): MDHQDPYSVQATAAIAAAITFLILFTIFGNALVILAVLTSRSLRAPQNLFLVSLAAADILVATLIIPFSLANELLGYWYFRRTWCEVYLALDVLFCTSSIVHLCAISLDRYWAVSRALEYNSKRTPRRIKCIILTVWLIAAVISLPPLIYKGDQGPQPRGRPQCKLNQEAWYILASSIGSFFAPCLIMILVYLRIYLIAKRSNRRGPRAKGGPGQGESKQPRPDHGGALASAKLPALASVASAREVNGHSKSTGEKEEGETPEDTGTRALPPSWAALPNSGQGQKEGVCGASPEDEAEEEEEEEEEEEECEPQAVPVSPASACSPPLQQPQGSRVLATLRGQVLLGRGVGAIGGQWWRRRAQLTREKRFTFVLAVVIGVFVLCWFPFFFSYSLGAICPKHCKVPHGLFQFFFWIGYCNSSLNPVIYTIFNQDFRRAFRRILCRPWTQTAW

[11] = molecular target: 5-hydroxytryptamine receptor 6 (Homo sapiens) (UniProt P50406); conditions: Compound concentration 10.0 uM
[12] = molecular target: Beta-1 adrenergic receptor (Homo sapiens) (UniProt P08588); conditions: Compound concentration 10.0 uM
[13] = molecular target: 5-hydroxytryptamine receptor 2B (Homo sapiens) (UniProt P41595); conditions: Compound concentration 10.0 uM
[14] = molecular target: Alpha-1A adrenergic receptor (Homo sapiens) (UniProt P35348); conditions: Compound concentration 10.0 uM
[15] = molecular target: Muscarinic acetylcholine receptor M3 (Homo sapiens) (UniProt P20309); conditions: Compound concentration 10.0 uM
[16] = molecular target: Beta-3 adrenergic receptor (Homo sapiens) (UniProt P13945); conditions: Compound concentration 10.0 uM
[17] = molecular target: Kappa-type opioid receptor (Homo sapiens) (UniProt P41145); conditions: Compound concentration 10.0 uM
[18] = molecular target: Histamine H1 receptor (Homo sapiens) (UniProt P35367); conditions: Compound concentration 10.0 uM
[19] = molecular target: 5-hydroxytryptamine receptor 1A (Homo sapiens) (UniProt P08908); conditions: Compound concentration 10.0 uM
[20] = molecular target: D(4) dopamine receptor (Homo sapiens) (UniProt P21917); conditions: Compound concentration 10.0 uM
[21] = molecular target: D(2) dopamine receptor (Homo sapiens) (UniProt P14416); conditions: Compound concentration 10.0 uM
[22] = molecular target: Sodium-dependent noradrenaline transporter (Homo sapiens) (UniProt P23975); conditions: Compound concentration 10.0 uM
[23] = molecular target: D(1B) dopamine receptor (Homo sapiens) (UniProt P21918); conditions: Compound concentration 10.0 uM
[24] = molecular target: Beta-2 adrenergic receptor (Homo sapiens) (UniProt P07550); conditions: Compound concentration 10.0 uM
[25] = molecular target: Histamine H4 receptor (Homo sapiens) (UniProt Q9H3N8); conditions: Compound concentration 10.0 uM
[26] = molecular target: Muscarinic acetylcholine receptor M2 (Homo sapiens) (UniProt P08172); conditions: Compound concentration 10.0 uM
[27] = molecular target: Sodium-dependent serotonin transporter (Homo sapiens) (UniProt P31645); conditions: Compound concentration 10.0 uM
[28] = molecular target: 5-hydroxytryptamine receptor 7 (Homo sapiens) (UniProt P34969); conditions: Compound concentration 10.0 uM
[29] = molecular target: Alpha-1D adrenergic receptor (Homo sapiens) (UniProt P25100); conditions: Compound concentration 10.0 uM
[30] = molecular target: Muscarinic acetylcholine receptor M4 (Homo sapiens) (UniProt P08173); conditions: Compound concentration 10.0 uM
[31] = molecular target: 5-hydroxytryptamine receptor 3A (Homo sapiens) (UniProt P46098); conditions: Compound concentration 10.0 uM
[32] = molecular target: Histamine H3 receptor (Homo sapiens) (UniProt Q9Y5N1); conditions: Compound concentration 10.0 uM
[33] = molecular target: T1, GABA-A receptor; anion channel (Rattus norvegicus); conditions: Compound concentration 10.0 uM; remark: listed apart in the source
[34] = molecular target: Muscarinic acetylcholine receptor M5 (Homo sapiens) (UniProt P08912); conditions: Compound concentration 10.0 uM
[35] = molecular target: Delta-type opioid receptor (Homo sapiens) (UniProt P41143); conditions: Compound concentration 10.0 uM
[36] = molecular target: 5-hydroxytryptamine receptor 5A (Homo sapiens) (UniProt P47898); conditions: Compound concentration 10.0 uM
Chain of 5-hydroxytryptamine receptor 5A (Homo sapiens) (P47898 whole entry): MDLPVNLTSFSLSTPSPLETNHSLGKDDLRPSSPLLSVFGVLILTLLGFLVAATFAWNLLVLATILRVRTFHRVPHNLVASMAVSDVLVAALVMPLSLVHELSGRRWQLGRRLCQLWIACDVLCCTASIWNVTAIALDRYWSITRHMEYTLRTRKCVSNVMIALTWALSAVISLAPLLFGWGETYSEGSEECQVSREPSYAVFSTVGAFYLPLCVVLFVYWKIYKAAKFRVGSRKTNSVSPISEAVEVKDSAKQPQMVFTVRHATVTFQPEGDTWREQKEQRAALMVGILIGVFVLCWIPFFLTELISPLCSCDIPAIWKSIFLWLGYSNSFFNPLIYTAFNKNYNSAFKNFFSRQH

Chain of Sodium-dependent serotonin transporter (Homo sapiens) (P31645 whole entry, looked up): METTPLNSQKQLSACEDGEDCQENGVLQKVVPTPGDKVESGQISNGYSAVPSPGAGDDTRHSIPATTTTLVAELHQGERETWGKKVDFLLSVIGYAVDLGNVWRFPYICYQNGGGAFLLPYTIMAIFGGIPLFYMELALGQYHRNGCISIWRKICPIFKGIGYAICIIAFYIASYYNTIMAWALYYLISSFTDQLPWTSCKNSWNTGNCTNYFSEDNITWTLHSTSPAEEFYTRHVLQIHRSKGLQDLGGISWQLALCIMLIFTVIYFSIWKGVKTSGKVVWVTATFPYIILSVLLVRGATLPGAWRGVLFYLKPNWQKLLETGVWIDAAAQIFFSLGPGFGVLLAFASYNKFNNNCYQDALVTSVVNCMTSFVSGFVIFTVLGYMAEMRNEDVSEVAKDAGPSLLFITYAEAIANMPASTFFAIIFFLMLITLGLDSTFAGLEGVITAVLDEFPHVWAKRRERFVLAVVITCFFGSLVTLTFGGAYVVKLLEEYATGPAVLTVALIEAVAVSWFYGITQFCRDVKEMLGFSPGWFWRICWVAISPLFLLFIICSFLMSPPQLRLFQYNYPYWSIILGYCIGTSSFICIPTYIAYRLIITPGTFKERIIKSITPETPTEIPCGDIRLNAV
Chain of 5-hydroxytryptamine receptor 6 (Homo sapiens) (P50406 whole entry): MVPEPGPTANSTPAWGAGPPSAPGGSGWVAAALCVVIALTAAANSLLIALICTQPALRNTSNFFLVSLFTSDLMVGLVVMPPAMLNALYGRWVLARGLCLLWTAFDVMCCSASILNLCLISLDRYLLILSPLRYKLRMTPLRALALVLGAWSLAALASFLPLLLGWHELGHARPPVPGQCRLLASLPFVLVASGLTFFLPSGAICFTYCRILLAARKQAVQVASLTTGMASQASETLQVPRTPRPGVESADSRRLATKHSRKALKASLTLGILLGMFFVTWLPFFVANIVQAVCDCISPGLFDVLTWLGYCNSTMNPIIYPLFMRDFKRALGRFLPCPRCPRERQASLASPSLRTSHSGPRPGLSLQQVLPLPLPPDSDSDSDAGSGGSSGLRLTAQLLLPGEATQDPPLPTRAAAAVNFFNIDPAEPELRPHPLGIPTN
Chain of Transient receptor potential cation channel subfamily M member 8 (Q7Z2W7 whole entry): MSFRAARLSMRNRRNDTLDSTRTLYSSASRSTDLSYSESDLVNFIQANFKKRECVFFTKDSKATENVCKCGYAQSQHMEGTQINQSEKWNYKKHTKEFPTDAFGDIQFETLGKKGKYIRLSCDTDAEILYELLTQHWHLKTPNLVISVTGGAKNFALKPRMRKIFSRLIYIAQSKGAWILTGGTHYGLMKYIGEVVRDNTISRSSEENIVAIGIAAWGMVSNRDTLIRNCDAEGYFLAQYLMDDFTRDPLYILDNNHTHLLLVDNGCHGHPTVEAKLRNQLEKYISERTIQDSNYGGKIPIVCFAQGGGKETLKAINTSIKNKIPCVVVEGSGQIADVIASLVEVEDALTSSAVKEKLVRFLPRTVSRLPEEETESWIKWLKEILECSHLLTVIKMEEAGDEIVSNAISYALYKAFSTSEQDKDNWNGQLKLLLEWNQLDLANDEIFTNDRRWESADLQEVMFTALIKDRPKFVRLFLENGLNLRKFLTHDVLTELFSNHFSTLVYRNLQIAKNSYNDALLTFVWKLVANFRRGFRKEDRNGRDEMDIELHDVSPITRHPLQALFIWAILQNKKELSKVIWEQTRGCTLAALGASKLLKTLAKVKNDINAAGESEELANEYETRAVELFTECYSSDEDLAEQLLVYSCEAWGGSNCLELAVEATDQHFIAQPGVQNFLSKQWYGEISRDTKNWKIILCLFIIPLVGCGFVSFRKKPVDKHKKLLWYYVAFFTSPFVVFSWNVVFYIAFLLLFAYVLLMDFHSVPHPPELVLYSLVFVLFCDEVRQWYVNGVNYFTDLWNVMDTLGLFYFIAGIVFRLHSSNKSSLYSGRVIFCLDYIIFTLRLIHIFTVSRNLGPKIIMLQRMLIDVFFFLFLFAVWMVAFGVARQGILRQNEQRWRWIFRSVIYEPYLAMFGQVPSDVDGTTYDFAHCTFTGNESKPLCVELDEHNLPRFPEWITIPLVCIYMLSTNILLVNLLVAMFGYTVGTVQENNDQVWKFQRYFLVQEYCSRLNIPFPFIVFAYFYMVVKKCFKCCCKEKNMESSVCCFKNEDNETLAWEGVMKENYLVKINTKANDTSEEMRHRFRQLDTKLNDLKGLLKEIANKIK
Chain of Beta-1 adrenergic receptor (Homo sapiens) (P08588 whole entry, looked up): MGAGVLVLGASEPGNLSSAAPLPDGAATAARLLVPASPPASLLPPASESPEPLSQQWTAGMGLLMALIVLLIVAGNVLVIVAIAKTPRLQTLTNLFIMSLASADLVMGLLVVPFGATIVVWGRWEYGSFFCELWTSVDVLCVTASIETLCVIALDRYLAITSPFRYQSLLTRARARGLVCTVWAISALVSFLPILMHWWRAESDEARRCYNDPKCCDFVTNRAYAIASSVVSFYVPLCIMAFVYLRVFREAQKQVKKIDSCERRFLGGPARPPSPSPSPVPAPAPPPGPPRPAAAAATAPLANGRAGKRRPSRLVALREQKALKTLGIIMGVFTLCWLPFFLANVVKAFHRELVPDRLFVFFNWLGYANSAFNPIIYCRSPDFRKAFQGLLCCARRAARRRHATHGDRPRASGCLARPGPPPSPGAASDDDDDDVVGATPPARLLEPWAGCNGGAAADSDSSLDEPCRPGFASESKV
Chain of 5-hydroxytryptamine receptor 3A (Homo sapiens) (P46098 whole entry): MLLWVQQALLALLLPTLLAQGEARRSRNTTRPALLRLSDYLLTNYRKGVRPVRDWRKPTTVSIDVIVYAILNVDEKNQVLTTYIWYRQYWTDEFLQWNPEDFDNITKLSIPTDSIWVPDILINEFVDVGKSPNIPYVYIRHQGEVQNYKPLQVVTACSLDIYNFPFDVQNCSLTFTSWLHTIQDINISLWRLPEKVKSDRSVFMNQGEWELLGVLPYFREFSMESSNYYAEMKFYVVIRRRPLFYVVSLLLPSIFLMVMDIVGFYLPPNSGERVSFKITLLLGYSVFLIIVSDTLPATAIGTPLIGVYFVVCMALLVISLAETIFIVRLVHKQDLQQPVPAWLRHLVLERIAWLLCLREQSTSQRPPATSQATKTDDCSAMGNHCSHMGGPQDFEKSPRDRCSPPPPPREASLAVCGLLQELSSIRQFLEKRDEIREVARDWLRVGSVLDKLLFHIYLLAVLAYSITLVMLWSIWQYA
Chain of Mu-type opioid receptor (Homo sapiens) (P35372 whole entry): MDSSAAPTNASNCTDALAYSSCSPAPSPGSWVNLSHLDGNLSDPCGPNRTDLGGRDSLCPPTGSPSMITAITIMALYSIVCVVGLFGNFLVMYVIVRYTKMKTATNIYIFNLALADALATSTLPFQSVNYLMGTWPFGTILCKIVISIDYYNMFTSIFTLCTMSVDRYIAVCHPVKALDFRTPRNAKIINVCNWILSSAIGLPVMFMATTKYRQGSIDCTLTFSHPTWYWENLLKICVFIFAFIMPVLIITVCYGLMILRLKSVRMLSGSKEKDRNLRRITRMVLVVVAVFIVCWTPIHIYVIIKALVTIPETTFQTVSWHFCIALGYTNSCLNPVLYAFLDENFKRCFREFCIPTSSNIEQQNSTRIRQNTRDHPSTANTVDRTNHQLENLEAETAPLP
Chain of 5-hydroxytryptamine receptor 1A (Homo sapiens) (P08908 whole entry): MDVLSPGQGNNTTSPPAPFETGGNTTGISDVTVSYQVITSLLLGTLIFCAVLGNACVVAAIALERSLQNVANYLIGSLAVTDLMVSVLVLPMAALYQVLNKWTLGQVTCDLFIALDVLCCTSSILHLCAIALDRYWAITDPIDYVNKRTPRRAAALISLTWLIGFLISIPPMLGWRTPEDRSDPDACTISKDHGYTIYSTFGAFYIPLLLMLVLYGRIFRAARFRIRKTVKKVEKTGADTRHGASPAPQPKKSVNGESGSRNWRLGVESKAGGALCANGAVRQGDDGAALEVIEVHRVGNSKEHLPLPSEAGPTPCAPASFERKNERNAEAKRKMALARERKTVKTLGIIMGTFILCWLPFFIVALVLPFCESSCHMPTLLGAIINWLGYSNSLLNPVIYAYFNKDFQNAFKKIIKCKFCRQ
Chain of 5-hydroxytryptamine receptor 1B (Homo sapiens) (P28222 whole entry): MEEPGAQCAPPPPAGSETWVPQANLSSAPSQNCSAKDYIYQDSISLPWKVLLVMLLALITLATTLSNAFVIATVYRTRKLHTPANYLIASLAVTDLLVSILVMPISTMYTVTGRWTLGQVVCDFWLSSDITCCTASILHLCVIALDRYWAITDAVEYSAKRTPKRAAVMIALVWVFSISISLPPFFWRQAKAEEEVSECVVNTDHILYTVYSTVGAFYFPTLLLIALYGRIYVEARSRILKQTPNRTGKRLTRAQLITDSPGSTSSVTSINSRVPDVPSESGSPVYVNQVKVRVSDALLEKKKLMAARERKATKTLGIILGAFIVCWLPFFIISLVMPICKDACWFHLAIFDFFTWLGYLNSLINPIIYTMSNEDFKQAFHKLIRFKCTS

SMILES: C[C@H](c1ccc(F)cc1)N(Cc1ccc(Cl)c(C(=O)O)c1)C(=O)c1cnc2ccccc2c1 [PF-05257137]
- inhibition [1]: 0.07%
- inhibition [2]: 28.3%
- inhibition [3]: -1.36%
- IC50 [4]: > 10 µM (not active)
- inhibition [5]: -2.34%
- inhibition (Rattus norvegicus): -9.88%
- inhibition [6]: -7.78%
- inhibition [7]: 14.5%
- inhibition [8]: 14.2%
- inhibition [9]: -7.94%
- inhibition [10]: 17.7%
- inhibition [11]: 11.3%
- inhibition [12]: -0.35%
- inhibition [13]: 21.8%
- inhibition [14]: 11.5%
- inhibition [15]: 39%
- inhibition [16]: -5.1%
- inhibition [17]: -0.42%
- inhibition [18]: -3.13%
- inhibition [19]: -3.79%
- inhibition [20]: 14.9%
- inhibition [21]: -0.95%
- inhibition [22]: -9.65%
- inhibition [23]: 12.8%
- inhibition [24]: 24.1%
- inhibition [25]: 3.41%
- inhibition [26]: 1.24%
- inhibition [27]: -2.63%
- inhibition [28]: 13.8%
- inhibition [29]: 10.1%
- inhibition [30]: 4.42%
- inhibition [31]: 14.3%
- inhibition [32]: -8.13%
- inhibition [33]: -0.14%
- inhibition [34]: -1.1%
- inhibition [35]: 12.4%
- inhibition [36]: 1.77%
